Measurements as given in the supplement of paper PMC10331698.
± gives the standard deviation of the averaged measurements.

Experiments:
Test in all cases: level (log10 ratio to DMSO vehicle control); higher = higher biomarker level / cell amount than vehicle control
Conditions in all cases: in DMSO
[1] = compound: O=C(O)C(F)(F)C(F)(F)C(F)(F)C(F)(F)C(F)(F)C(F)(F)C(F)(F)C(F)(F)C(F)(F)F [Perfluorodecanoic acid]
Method: (§1)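 BioMAP Diversity Plus panel of 12 human primary cell co-culture systems (3C, 4H, LPS, SAg, BT, BF4T, BE3C, CASM3C, HDF3CGF, KF3CT, MyoF, Mphg). Compounds were added 1 h before stimulation and left for 24 h (MyoF 48 h; BT 72 h for soluble read-outs or 6 d for IgG). Biomarkers were read by ELISA, cytotoxicity by SRB, PBMC viability and proliferation by Alamar Blue. Each well value was divided by the mean of 8 DMSO control wells on the same plate and log10 transformed; duplicate blinded samples were tested at 4 concentrations.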

[2] = compound: NC(=O)C(F)(F)C(F)(F)F [Pentafluoropropionamide]
Method: as §1

[3] = compound: O=C(O)C(F)(F)C(F)(F)C(F)(F)C(F)(F)F [Perfluoropentanoic acid]
Method: as §1

[4] = compound: C=CC(F)(F)C(F)(F)C(F)(F)C(F)(F)C(F)(F)C(F)(F)C(F)(F)C(F)(F)C=C [1,8-Divinylperfluorooctane]
Method: as §1

[5] = compound: O=C(O)C(F)(F)C(F)(F)C(F)(F)OC(F)(C(F)(F)F)C(F)(F)F [Perfluoro-4-isopropoxybutanoic acid]
Method: as §1

[6] = compound: COC(=O)CCC(F)(F)C(F)(F)C(F)(F)C(F)(F)F [Methyl 2H,2H,3H,3H-perfluoroheptanoate]
Method: as §1

[7] = compound: O=C(O)C(F)(F)OC(F)(F)C(F)(F)OC(F)(F)F [Perfluoro-3,6-dioxaheptanoic acid]
Method: as §1

| Test System | level (log10) ([1]; 6700 nM) | level (log10) ([1]; 20000 nM) | level (log10) ([2]; 6700 nM) | level (log10) ([2]; 20000 nM) | level (log10) ([2]; 60000 nM) | level (log10) ([3]; 6700 nM) | level (log10) ([3]; 20000 nM) | level (log10) ([3]; 60000 nM) | level (log10) ([4]; 6700 nM) | level (log10) ([4]; 20000 nM) | level (log10) ([5]; 6700 nM) | level (log10) ([5]; 20000 nM) | level (log10) ([5]; 60000 nM) | level (log10) ([6]; 6700 nM) | level (log10) ([6]; 20000 nM) | level (log10) ([6]; 60000 nM) | level (log10) ([7]; 6700 nM) | level (log10) ([7]; 20000 nM) | level (log10) ([7]; 60000 nM) |
| --- | --- | --- | --- | --- | --- | --- | --- | --- | --- | --- | --- | --- | --- | --- | --- | --- | --- | --- | --- |
| HDF3CGF:CXCL10/IP-10 | -0.0745 ± 0.015 | -0.427 ± 0.019 | -0.0075 ± 0.022 | -0.009 ± 0.011 | 0.006 ± 0.04 | 0 ± 0.014 | -0.011 ± 0.0028 | 0.006 ± 0.0057 | 0.0205 ± 0.035 | 0.017 ± 0.035 | -0.0135 ± 0.0064 | -0.029 ± 0.011 | -0.0615 ± 0.0035 | -0.011 ± 0.0085 | 0.006 ± 0.016 | -0.026 ± 0.0071 | 0.007 ± 0.011 | 0.0095 ± 0.0078 | -0.0075 ± 0.043 |
| CASM3C:PAI-I | 0.001 ± 0.0014 | -0.0015 ± 0.005 | -0.009 ± 0.0099 | -0.007 ± 0.014 | 0.0005 ± 0.0064 | -0.0095 ± 0.011 | -0.007 ± 0.0042 | 0.0005 ± 0.011 | -0.0015 ± 0.00071 | 0.004 ± 0.0028 | 0.007 ± 0.016 | 0.01 ± 0.021 | 0.0075 ± 0.026 | -0.0195 ± 0.0078 | -0.006 ± 0.0099 | -0.0095 ± 0.016 | -0.004 ± 0.0099 | -0.013 ± 0.024 | -0.0105 ± 0.018 |
| 3C:CD54/ICAM-1 | 0.0105 ± 0.0021 | 0.015 ± 0.0071 | 0.0035 ± 0.0035 | -0.0105 ± 0.016 | 0.008 ± 0.014 | -0.0145 ± 0.03 | -0.028 ± 0.021 | -0.0075 ± 0.022 | -0.0005 ± 0.0064 | 0.0095 ± 0.0021 | 0.0075 ± 0.016 | -0.0085 ± 0.022 | 0.0285 ± 0.0078 | -0.0175 ± 0.0078 | -0.017 | 0.002 ± 0.017 | -0.0325 ± 0.0064 | -0.0165 ± 0.019 | 0.0035 ± 0.005 |
| CASM3C:Serum Amyloid A | 0.035 ± 0.031 | 0.0345 ± 0.026 | 0.0045 ± 0.015 | -0.0055 ± 0.0035 | 0.0245 ± 0.005 | -0.003 ± 0.0071 | -0.013 ± 0.011 | -0.0045 ± 0.033 | -0.0145 ± 0.0035 | -0.011 ± 0.0085 | -0.0025 ± 0.0078 | -0.0295 ± 0.013 | 0.0165 ± 0.081 | 0.009 | -0.0065 ± 0.013 | -0.0005 ± 0.022 | -0.038 ± 0.055 | -0.014 ± 0.0085 | -0.002 ± 0.086 |
| MyoF:CXCL8/IL-8 | 0.0205 ± 0.037 | 0.0085 ± 0.016 | -0.031 ± 0.013 | -0.026 ± 0.016 | 0.013 ± 0.045 | -0.008 ± 0.02 | 0.01 ± 0.0071 | 0.024 ± 0.014 | -0.028 ± 0.014 | 0.0085 ± 0.035 | 0.0195 ± 0.06 | 0.077 ± 0.079 | 0.0735 ± 0.074 | -0.0085 ± 0.00071 | -0.001 ± 0.0071 | 0.0155 ± 0.039 | -0.0255 ± 0.08 | -0.0035 ± 0.03 | 0.0435 ± 0.019 |
| MyoF:alpha-SM Actin | 0.031 ± 0.027 | -0.04 ± 0.016 | -0.007 ± 0.02 | -0.0135 ± 0.019 | -0.0195 ± 0.018 | 0.0265 ± 0.07 | 0.0355 ± 0.052 | 0.0485 ± 0.044 | -0.016 ± 0.0042 | -0.0155 ± 0.028 | 0.0045 ± 0.023 | 0.008 ± 0.033 | 0.026 ± 0.052 | -0.009 ± 0.024 | -0.007 ± 0.02 | -0.0035 ± 0.04 | -0.013 ± 0.0071 | -0.027 ± 0.034 | -0.0095 ± 0.018 |
| KF3CT:MMP-9 | -0.103 ± 0.037 | -0.308 ± 0.0028 | -0.0375 ± 0.012 | -0.0255 ± 0.00071 | -0.0105 ± 0.012 | -0.0225 ± 0.025 | -0.0205 ± 0.018 | 0.012 ± 0.038 | -0.0395 ± 0.028 | -0.029 ± 0.018 | 0.0055 ± 0.0035 | 0.022 ± 0.02 | 0.078 ± 0.014 | -0.012 ± 0.047 | -0.0145 ± 0.035 | -0.024 ± 0.017 | -0.0195 ± 0.033 | -0.0205 ± 0.05 | -0.028 ± 0.034 |
| KF3CT:CXCL8/IL-8 | -0.0225 ± 0.011 | -0.0035 ± 0.018 | -0.005 ± 0.0042 | -0.0105 ± 0.005 | 0.0215 ± 0.012 | -0.0025 ± 0.019 | -0.0035 ± 0.005 | 0.016 ± 0.0071 | -0.0035 ± 0.033 | 0.011 ± 0.0057 | 0.0175 ± 0.018 | 0.0335 ± 0.005 | 0.043 ± 0.071 | -0.0125 ± 0.019 | -0.007 ± 0.013 | 0.0175 ± 0.044 | -0.0075 ± 0.015 | 0.005 ± 0.011 | 0.0515 ± 0.033 |
| KF3CT:SRB | -0.0325 ± 0.005 | -0.036 ± 0.0085 | -0.006 ± 0.0014 | -0.0025 ± 0.0035 | -0.007 ± 0.023 | -0.007 ± 0.0071 | -0.004 ± 0.0014 | 0.0055 ± 0.011 | -0.011 ± 0.018 | -0.0235 ± 0.005 | -0.009 ± 0.0071 | -0.013 ± 0.0028 | -0.007 ± 0.0071 | -0.018 ± 0.016 | -0.0055 ± 0.005 | 0 ± 0.018 | 0.0035 ± 0.0021 | -0.0015 ± 0.0021 | -0.0045 ± 0.005 |
| HDF3CGF:CXCL8/IL-8 | 0.0065 ± 0.005 | 0.02 ± 0.011 | -0.006 ± 0.0057 | -0.0105 ± 0.00071 | -0.0065 ± 0.013 | 0.003 ± 0.0057 | -0.006 ± 0.0028 | 0.002 ± 0.023 | -0.0095 ± 0.0021 | -0.002 ± 0.0085 | 0.0015 ± 0.00071 | 0.0135 ± 0.0035 | 0.0035 ± 0.0021 | -0.006 ± 0.013 | -0.01 ± 0.024 | -0.0035 ± 0.0021 | -0.004 ± 0.013 | 0.0015 ± 0.005 | 0.0185 ± 0.016 |
| lMphg:CD62E/E-Selectin | -0.026 ± 0.0028 | -0.0135 ± 0.011 | -0.018 ± 0.0014 | 0.016 ± 0.014 | -0.013 ± 0.0071 | 0.012 ± 0.0057 | -0.008 ± 0.014 | 0.003 ± 0.042 | -0.006 ± 0.024 | -0.054 ± 0.038 | -0.011 ± 0.027 | 0.007 ± 0.038 | 0.0005 ± 0.039 | -0.004 ± 0.0028 | -0.0245 ± 0.016 | -0.0075 ± 0.018 | 0.0105 ± 0.0021 | 0.003 ± 0.017 | 0.061 |
| MyoF:Collagen III | -0.028 ± 0.03 | -0.36 ± 0.066 | 0.002 ± 0.031 | -0.005 ± 0.0014 | -0.007 ± 0.0057 | -0.001 ± 0.0028 | 0.0055 ± 0.0021 | -0.001 ± 0.0085 | -0.02 ± 0.0071 | -0.0115 ± 0.012 | -0.0095 ± 0.011 | -0.001 ± 0.0014 | 0.0025 ± 0.021 | -0.0085 ± 0.0092 | -0.007 ± 0.0014 | -0.015 ± 0.0057 | -0.025 ± 0.0014 | -0.001 ± 0.017 | 0.027 ± 0.038 |
| CASM3C:CD87/uPAR | -0.0055 ± 0.005 | 0.016 ± 0.011 | -0.031 ± 0.05 | -0.012 ± 0.0071 | -0.019 ± 0.03 | -0.027 ± 0.052 | -0.031 ± 0.027 | -0.0175 ± 0.005 | -0.002 ± 0.014 | 0.0175 ± 0.0035 | -0.0225 ± 0.046 | -0.0265 ± 0.052 | 0.003 ± 0.014 | -0.029 ± 0.035 | -0.0275 ± 0.026 | -0.0185 ± 0.022 | -0.0105 ± 0.043 | 0.022 ± 0.013 | -0.006 ± 0.018 |
| HDF3CGF:M-CSF | 0.023 ± 0.0057 | -0.275 ± 0.018 | 0.0015 ± 0.011 | -0.0135 ± 0.0035 | 0.0085 ± 0.06 | 0.0025 ± 0.019 | -0.018 ± 0.0099 | 0.004 ± 0.0028 | -0.0335 ± 0.042 | -0.0085 ± 0.053 | -0.016 ± 0.0071 | -0.0135 ± 0.0078 | -0.0055 ± 0.005 | -0.0125 ± 0.0064 | -0.008 ± 0.013 | 0.002 ± 0.011 | -0.015 ± 0.0099 | -0.013 ± 0.0042 | -0.0105 ± 0.05 |
| MyoF:Collagen I | -0.0065 ± 0.059 | -0.417 ± 0.071 | 0.012 ± 0.0057 | 0.006 ± 0.0028 | 0.01 ± 0.0028 | -0.0065 ± 0.0092 | -0.008 ± 0.0085 | 0.0065 ± 0.015 | -0.0145 ± 0.016 | -0.005 ± 0.0028 | -0.0045 ± 0.0035 | -0.0035 ± 0.021 | 0.0075 ± 0.016 | 0.0055 ± 0.016 | 0.0035 ± 0.011 | -0.004 ± 0.021 | -0.0185 ± 0.039 | -0.002 ± 0.0099 | -0.0155 ± 0.023 |
